From US7482008B1, “Human T cell reactive feline protein (TRFP) isolated from house dust and uses therefor” (Merck Patent GmbH, priority 1989, dated 2009) come the findings set out here.

Assay [1] deals with BDF1 mice preimmunized with TRFP. As to the kind of experiment: Peptide Y specific antibody ELISA of sera from TRFP-preimmunized, peptide Y tolerized mice. Format: in vivo, mouse. On the procedure:
The serum was separated as previously described. […] Each incubation step in this protocol lasts 1 hour at 37° C. The wells were incubated with gelatin in PBS for blocking excess binding to the plate. Sera were diluted in PBS in a range from 1/300 to 1/8100 and incubated in triplicate on the plates. After rinsing, the bound mouse antibody was detected by incubation with biotinylated goat anti-mouse IgG (Southern Biotechnology Associates). Streptavidin conjugated to horse radish peroxidase (Southern Biotechnology Associates) was added to detect antigen bound biotinylated antibody-complexes. […] The data from the other sera dilutions were consistent with the data from the 1/900 sera dilution.
The sera were assayed for the presence of peptide Y specific IgM, IgE, and IgG isotypes. The ELISA used to detect antigen specific binding of IgG1, IgG2a, IgG2b, IgG3 and IgM isotypes were similar to the IgG assay described above with the only difference being the biotinylated anti-immunoglobulin used to detect the bound isotype. These assays employed biotinylated goat anti-IgG1 (#1070-08), Southern Biotechnology Associates), anti-IgG2a (#1080-08, SBA), anti-IgG2b (1090-08, SBA) […] (1100-08, SBA), and anti-IgM (1020-08, SBA). Antigens bound IgE was detected similarly, but using biotinylated EM95, a rat monoclonal antibody specific for mouse IgE. (Baniyash M, Eshhar Z, Eur J. Immunol. 14:799, 1984). Biotinylated goat anti-rat Ig was used as an added signal amplification step in the IgE ELISA. […] IgG1 was the major isotype seen in the animals which were injected with saline only, with a titer of 1/2700 for all three animals. […] The titers for IgM and IgG2b were similarly effected.
Background: An ELISA detects its analyte on a solid surface through an enzyme-linked reagent.

Assay [2] has as its system mice primed to rch1. As to the kind of experiment: Duration of peptide inhibitory effects on T cell function in rCh1 primed mice. The class given is in vivo, mouse. The conditions noted are these: FIG. 25. As for the experimental part: Mice were injected with recombinant TRFP Chain 1 (rCh1) in Incomplete Freund's Adjuvant. Three months later all the mice were primed to rch1 as judged by their development of significant titers of anti-rch1 antibody.

In assay [3] the test system is B6CBAF1 mice. As to the kind of experiment: Oral induction of T cell non-responsiveness, protocol 1. Format: in vivo, mouse. Particulars: fed on days -7, -5, -2. On the procedure:
(§1) The draining lymph nodes (i.e., inguinal, paraaortic and popliteal), the mesenteric lymph nodes, and the spleen were surgically removed from the animals 10-12 days after antigen challenge. Cells from these tissues were suspended by being forced through a stainless steel mesh with a glass pestle. The cells were washed twice in RPMI 1640 medium with a 1% fetal calf serum (FCS) before culture. All cells were cultured at 37° C. in 5% CO2 in RPMI 1640 with 10% FCS (no. F4884, Sigma), 100 units of penicillin G per ml, 10 μg of streptomycin per ml, 10 mM glutamine, and 0.05 mM 2-mercaptoethanol. […]. Cells were cultured in triplicate, 0.2 ml per well at 4×10^6 cells per ml, in 96-well plates. Supernatants were removed from the wells after 24 hours to test for the production of IL-2 or IL-3 and were frozen to kill any transferred cells or removed after 48 hours for testing IL-4 production. Separate triplicate wells were incubated for 96 hours for the proliferation assay. The supernatants were kept at […] for several days to kill transferred cells.
(§2) Lymph node of spleen cells were plated in a flat bottom 96-well plate (4×10^5/well) in 100 μl medium. Peptide or recombinant protein or control solution (100 μl) is added to each well and the cells allowed to incubate for 1 day at 37° C. On day 2, the cultures were pulsed with [^3H] thymidine (1 μCi per well in 50 μl of medium; 1 Ci=37 GBq) for 4 to 6 hours, and on day 3, the plates were harvested with a 96-well harvester (Tomtec, Orange, Conn.) and counted on a Betaplate scintillation counter (Pharmacia, Upsaala Sweden).
(§3) To measure IL-2, supernatants were tested after thawing for the ability to support the growth of an IL-2-dependent line such as CTLL-2 (University of California, Berkeley). […] After a 24 hour incubation, the cells were pulsed with [^3H] thymidine (1 μCi per well in 50 μl of medium; 1 Ci=37 GBq) for 4 to 6 hours and the plates were harvested with a 96-well harvester (Tomtec, Orange, Conn.) and counted on a Betaplate scintillation counter (Pharmacia, Upsaala Sweden).

Assay [4] has as its system Fel d I primed mice. In words: Peptide Y s.c. in Fel d I primed mice, IL-2 production of lymph node cells. Format: in vivo, mouse. Particulars: injected subcutaneously up to fifty-six days earlier; compared to control mice.
For assay [5], the system named is Balb/c mice. As to the kind of experiment: Oral rChain 1, single vs multiple doses, protocol 3. The class given is in vivo, mouse. On the procedure:
Five groups of five age-matched Balb/c mice were fed on days −7, −5 and −2 with 250 μg rChain 1 (Groups 1 and 4), 750 μg rChain 1 (Group 2), or with PBS (Groups 3 and 5). On day 0, the mice in Groups 1-3 were challenged with a s.c. injection of 100 μg rChain 1 in CFA, while the mice in Groups 4 and 5 were not challenged. On day 12 the draining and mesenteric lymph nodes and spleens were removed for proliferation, IL-2, IL-4 and TGF-beta assays.
as §1, §2
as §3, with “Berkeley). The cell line was maintained by passage in 10% supernatant of Con A-stimulated (5 μg/ml) rat spleen cells. This cell line is dependent almost exclusively on IL-2 for growth and survival, proliferating only weakly to high doses of recombinant IL-4.” for “Berkeley).”, “Sweden). […]” for “Sweden).”

The test system of assay [6] is human IgE (cat allergic patient plasma). In words: Dot blot assay of human IgE binding. Particulars: percent of cat allergic patients with positive IgE binding.
Method: TRFP was coated at 2, 0.2 and 0.02 μg/dot and the peptides at 10, 1 and 0.1 μg/dot. Wells were then washed with 200 μl PBS. After equilibration of blots with Tween solution, (Tris-HCL; pH 7.5 0.025M NaCl 0.17 m Tween-20 0.5%) all sections were blocked with 1% nonfat dry milk, 1% fetal calf serun/Tween solution for 1-1.5 hour. Patient plasma was used at 10% (v/v) in 1% milt/Tween solution and preabsorbed on blank strips of nitrocellulose for 1 hour. After preabsorption, the diluted patient plasma sample was incubated with the antigen bearing dot blot overnight at room temperature (RT). Nitrocellulose dot blot was incubated in biotinylated goat anti-human IgE (1:2500) in Tween solution for 2 hours RT. After washing, the sections were incubated in 1 μCi ^125I-Streptavidin, 1 hour. Following removal of unbound label by extensive washing, the blots were exposed to film for 16 hours.

Take “peptide Y: amino acid residues 29-55 from chain 1 of TRFP (SEQ. ID. NO: 18) (KALPVVLENARILKNCVDAKMTEEDKE)”: the “IgG antibody specific for peptide Y” value in assay [1] (10 days after peptide Y/CFA challenge, sera 1/900) was “little antibody specific for peptide Y”. In assay [1] (mouse, in vivo), the “peptide Y specific IgG2a, IgG3, or IgE” value is reported as “No binding above background”. Moreover, in assay [1] (peptide Y tolerized animals), the “peptide Y specific IgG2b” value is “no IgG2b binding above background” and the “peptide Y specific serum IgM titer” value is given as 1/300. Further, in assay [1] (peptide Y tolerized animals (two animals / one animal)), the “peptide Y specific IgG1 titer” value is 1/300 and no binding above background. Also, the “duration of inhibitory effects of subcutaneous peptide injection on T cell function” value in assay [2] is “up to 56 days”. Further, in assay [3], the “spleen cell IL-2 production” value was “limited in their ability to produce IL-2” and the spleen cell proliferation entry is “no effect on spleen cell proliferation”. In addition, in assay [3] (challenge 100 μg in CFA), the “proliferation of and production of IL-2 by draining and mesenteric lymph node cells” value is listed as “decreased”. Besides, the “IL-2 production of lymph node cells” value in assay [4] is “decreased IL-2 production”.

For the substance “recombinant chain 1: recombinant TRFP chain 1 expressed in E. coli”, the “production of IL-2 by mesenteric lymph node cells” value in assay [5] (cultured with rChain 1, Peptide X, and Peptide Y) was “detectable tolerizing effect”. In assay [5] (mouse, in vivo), the “spleen cell response to peptide X” value is listed as “not changed”; the “spleen cell response to rChain 1 and peptide Y” value was “moderately decreased”. The “draining node response, single oral 750 μg vs several doses of 250 μg” value in assay [5] (mouse, in vivo, po) is recorded as “more effective”.

For “TRFP: human T cell reactive feline protein affinity purified from house dust; two covalently linked chains”, in assay [6], the “Positive Binding” value is listed as 100%.
